Test results published in US20230212170A1, “INHIBITORS OF KRAS G12C PROTEIN AND USES THEREOF” (SHANGHAI ANTENGENE CORPORATION LIMITED, priority 2020, published 2023).
Where two headings read alike, the source gives them in different places.

Key:
A549 = assay: Tumor cell anti-proliferation assay (CTG assay), A549; assay type: cell-based; conditions: A549, 3-days incubation
Description: (§1) Assay 3: Tumor Cell Anti-Proliferation Assay (CTG Assay)
(§2) Tested tumor cell lines (MIA PaCa-2, NCI-H358, and A549) were seeded to the 96-well plate for overnight, then cells were treated with the test compound at 9 serially diluted concentrations in triplicate. After 3-days incubation with the test compound, the CTG assay was performed to evaluate the IC50. The 3 cell lines were tested in the same manner. Cisplatin were used as the positive control.
(§3) Day −1: Cell Plating for Cell Lines
(§4) 1. Adjust the cell concentration to the appropriated number with the medium, and for each well of a 96-well plate, add 90 μl cell suspensions (Cell concentration will be adjusted according to the data base or density optimization assay). 2. Incubate the plates for overnight in humidified incubator at […] with 5% CO2.
(§5) Day 0: T0 Plate Reading and Compound Treatment
(§6) 3. Add 10 μL culture medium to each well of plate A for T0 reading.
(§7) 4. Equilibrate the plate and its content at RT for approximately 30 min.
(§8) 5. Add 50 μL CellTiter-Glo® Reagent to each well for T0 reading.
(§9) 6. Mix contents for 2 minutes on an orbital shaker to facilitate cell lysis.
(§10) 7. Allow the plate to incubate at room temperature for 10 minutes to stabilize the luminescent signal. Note: Uneven luminescent signal within standard plates can be caused by temperature gradients, uneven seeding of cells or edge effects in multiwall plates.
(§11) 8. Place a black BackSeal sticker to the bottom of each plate.
(§12) 9. Record luminescence using an Envision Multi Label Reader.
(§13) 10. Dilute the test compound and the positive control (Cisplatin). Add 10 μL of 10× test compound working solutions into the corresponding wells. Incubate the test plates in the humidified incubator at 37° C. with 5% Co2.
(§14) Day 3: Plate Reading for 3-Day Assay
(§15) 11. Monitor under the microscope to make sure that the cells in control wells are healthy.
(§16) 12. After three days incubation, add 50 μL CellTiter-Glo® Reagent to each well.
(§17) 13. Mix contents for 2 minutes on an orbital shaker to facilitate cell lysis.
(§18) 14. Allow the plate to incubate at room temperature for 10 minutes to stabilize the luminescent signal.
(§19) 15. Note: Uneven luminescent signal within standard plates can be caused by temperature gradients, uneven seeding of cells or edge effects in multiwall plates.
(§20) 16. Place a black BackSeal sticker to the bottom of each plate.
(§21) 17. Record luminescence using an Envision Multi Label Reader.
(§22) In order to calculate IC50, a dose-response curve was fitted using nonlinear regression model with a sigmoidal dose response. The formula of the surviving rate is shown below, and the IC50 was automatically produced by GraphPad Prism 5.0.
(§23) The surviving rate […]=(LumTest compound−LumMedium control)/(LumNone treated-LumMedium control)×100%.
(§24) LumNone treated-LumMedium control is set as 100% o and LumMedium control is set as […]. T0 value will be presented as percentage of LumNone treated.

KRAS G12C [1] = biological target: T1, KRAS G12C (Homo sapiens, UniProt P01116, G12C); assay: KRAS G12C nucleotide exchange assay (SOS1-mediated, mant-GDP fluorescence); assay type: biochemical; set-up: KRas(1-169) G12C protein; conditions: 15 min pre-incubation
Description: Assay 1: KRAS G12C Nucleotide Exchange Assay
1×Loading buffer: 20 mM HEPES, pH 7.5, 50 mM NaCl, 0.5 mM MgCl2, 1 mM DTT, 5 mM EDTA
1×Equilibration buffer: 20 mM HEPES, pH 7.5, 150 mM NaCl, 1 mM MgCl2, 1 mM DTT
1×Assay buffer: 20 mM HEPES, pH 7.5, 150 mM NaCl, 1 mM MgCl2, 0.01% Tween-20, 1 mM DTT
2. Load Mant GDP to KRAS G12C:
a. A mixed solution of 100 µL mant GDP and KRAS G12C was prepared with 1×loading buffer: 60 um KRAS G12C, 600 um […], incubated at room temperature for 60 minutes, and the reaction was carried out in dark conditions.
b. Add 1 uL 1 m MgCl2 (final concentration 10 mm) to stop the reaction, mix the solution upside down in the centrifuge tube, centrifugate for 3-5 seconds, and incubate at room temperature for 30 minutes.
c. At the same time of incubation for 30 minutes, balance nap-5 column with 10 ml ix equipment buffer until no liquid drops.
d. Drop the mixed solution of 100 uL mant GDP and KRAS G12C into the center of nap-5 column. After the sample completely enters nap-5 column, add 400 µL 1× equipment buffer until no liquid drops.
e. Add 500 ul 1× equipment buffer for elution and collect eluant.
f. Determination of KRAS G12C mant GDP with Bradford protein quantitative Kit.
3. Nucleotide Exchange Experiment:
a. Transfer 50 NL DMSO/compound to 384 well plate with echo550.
b. 10 uL enzyme mix was added into 384 pore plate and incubated with DMSO/compound for 15 min.
c. Initial reaction with 10 µL Sos1/GTP mix.
d. Immediately after reaction, read ex360/em440 fluorescence value in kinetic mode with Nivo.
a. Use Graphpad software to process data and draw pictures.
b. K value is obtained in Graphpad software by fitting One phase experimental deck model.
c. Z′=1-3*(SdKmax+SdKmin)/(AveKmax−AveKmin)
d. In % is calculated by the following formula:
Inh%=(Kmax−Ksample)/(Kmax−Kmin)*100
Target sequence in this assay (P01116 1-169 isoform P01116-2 G12C): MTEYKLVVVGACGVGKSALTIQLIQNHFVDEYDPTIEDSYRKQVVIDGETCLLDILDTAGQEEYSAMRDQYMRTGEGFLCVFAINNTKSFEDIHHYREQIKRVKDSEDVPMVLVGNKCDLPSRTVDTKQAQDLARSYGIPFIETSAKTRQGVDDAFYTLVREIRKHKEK

NCI-H358 = assay: Tumor cell anti-proliferation assay (CTG assay), NCI-H358; assay type: cell-based; conditions: NCI-H358, 3-days incubation, CTG, read-out: IC50 NCI-H358
Description: as §1, §2, §3, §4, §5, §6, §7, §8, §9, §10, §11, §12, §13, §14, §15, §16, §17, §18, §19, §20, §21, §22, §23, §24

MIA PaCa-2 = assay: Tumor cell anti-proliferation assay (CTG assay), MIA PaCa-2; assay type: cell-based; conditions: MIA PaCa-2, 3-days incubation, CTG, read-out: IC50 MIA PaCa-2
Description: as §1, §2, §3, §4, §5, §6, §7, §8, §9, §10, §11, §12, §13, §14, §15, §16, §17, §18, §19, §20, §21, §22, §23, §24

[2] = Pharmacokinetics study in plasma of ICR mice, intravenous or oral administration; assay type: in vivo; conditions: male ICR mice
Description: The purpose of this study is to determine the pharmacokinetics parameters in plasma of compounds in ICR mice following intravenous or oral administration.
The formulations were based on sponsor's recommendation and will be prepared by the Testing Facility.
Species and Strain: ICR Mice (Male)
Source: Sino-British SIPPR Lab Animal Ltd, Shanghai
Number of Animals: Ordered: 8; Needed: 6
The test article was be administered via a single IV or PO dosing.
IV group: Post-dose at 5 min, 15 min, 30 min, 1 h, 2 h, 4 h, 8 h and 24 h.
PO group: Post-dose at 15 min, 30 min, 1 h, 2 h, 4 h, 6 h, 8 h and 24 h.
30˜40 μL/sample. Samples were be placed in tubes containing heparin sodium and stored on ice until centrifuged.
The PK blood samples were centrifuged at approximately 6800G for 6 minutes at 2-8° C. and the resulting plasma was transferred to appropriately labeled tubes within 2 hour of blood collection/centrifugation and stored frozen at approximately −70° C.
Method development and biological samples analysis for the test articles (Sodium heparin anticoagulant) were be performed by Testing Facility by means of LC-MS/MS. The analytical results were be confirmed using quality control samples for intra-assay variation. The accuracy of >66.7% of the quality control samples were be between 80-120% of the known value(s).
Pharmacokinetics Analysis
Standard set of parameters including Area Under the Curve (AUC(0-t) and AUC(0-∞)), elimination half-live (T1/2), maximum plasma concentration (Cmax) and time to reach maximum plasma concentration (Tmax) and other parameters were be calculated using Phoenix WinNonlin 7.0 (Pharsight, USA) by the Study Director.

KRAS G12C [3] = biological target: T1, KRAS G12C; assay: KRAS GDP FI assay; assay type: biochemical; conditions: kinetic reading Ex580/Em620 for 120 min
From the text: Assay 2: KRAS GDP FI Assay
1. Prepare compound dilution plate.
2. Transfer Inhibitor/DMSO to assay plate by Echo.
3. Prepare 1× assay buffer.
4. Prepare KRAS G12C mix & SOS1 mix & GTP mix & detection reagent mix.
5. Add KRAS G12C mix, SOS1 mix, GTP mix.
6. Add detection reagent mix to assay plate.
Target sequence in this assay (P01116 1-188 isoform P01116-2 G12C): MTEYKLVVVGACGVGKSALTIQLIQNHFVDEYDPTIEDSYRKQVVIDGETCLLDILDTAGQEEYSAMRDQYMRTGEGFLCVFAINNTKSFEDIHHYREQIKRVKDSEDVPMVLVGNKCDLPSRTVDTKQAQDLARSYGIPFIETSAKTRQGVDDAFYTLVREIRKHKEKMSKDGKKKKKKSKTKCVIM

[4] = mouse, 1 mg/kg, IV, 1 mpk, plasma
[5] = mouse, 10 mg/kg, PO, 10 mpk, fasted, plasma

Structure (SMILES)	IC50 (A549; Homo sapiens, 72 h) [µM]	IC50 (KRAS G12C [1]) [µM]	IC50 (NCI-H358; Homo sapiens, NCI-H358, 72 h) [µM]	IC50 (MIA PaCa-2; Homo sapiens, MIA PaCa-2, 72 h) [µM]	IC50 (NCI-H358) [µM]	IC50 (A549) [µM]	IC50 (MIA PaCa-2) [µM]	other results
C=CC(=O)N1CCN(c2nc(OC[C@@H]3CCCN3C)nc3c(=O)n(-c4cccc5cccc(Cl)c45)c(=O)[nH]c23)C[C@@H]1CC#N [Compound 19, 2-((S)-1-acryloyl-4-(7-(8-chloronaphthalen-1-yl)-2-(((S)-1-methylpyrrolidin-2-yl)methoxy)-6,8-dioxo-5,6,7,8-tetrahydropyrimido[5,4-d]pyrimidin-4-yl)piperazin-2-yl)acetonitrile]	> 5	0.37	> 5	> 5	–	–	–	–
C=CC(=O)N1CCN(c2nc(OC[C@@H]3CCCN3C)nc3c(=O)n(-c4cccc5cccc(Cl)c45)c(C)nc23)C[C@@H]1CC#N [Compound 4, 2-((S)-1-acryloyl-4-(7-(8-chloronaphthalen-1-yl)-6-methyl-2-(((S)-1-methylpyrrolidin-2-yl)methoxy)-8-oxo-7,8-dihydropyrimido[5,4-d]pyrimidin-4-yl)piperazin-2-yl)acetonitrile]	> 5	0.56	0.476	0.504	–	–	–	–
C=CC(=O)N1C[C@H](C)N(c2nc(OC[C@@H]3CCCN3C)nc3c(=O)n(-c4cccc5cccc(Cl)c45)c(C(F)(F)F)nc23)[C@@H](C)C1 (single isomer, unassigned) [Example 29-b]	> 10	–	–	0.906	0.0286	–	–	F ([2]; PO 10 mpk vs IV 1 mpk): 26.74%; AUC [2, 4]: 993 nM·h; C0 [2, 4]: 0.659 µM; Vd [2, 4]: 2.97 L/kg; clearance [2, 4]: 1.54 L/h/kg; half-life [2, 4]: 1.59 h; AUC [2, 5]: 2580 nM·h; Cmax [2, 5]: 0.729 µM; Tmax [2, 5]: 0.42 h; half-life [2, 5]: 2.39 h; IC50 (KRAS G12C [3]): 0.127 µM
N.N.[Cl][Pt][Cl] [Cisplatin, reference compound]	–	–	–	–	25	31.1	14.3	–
Cc1nc2c(N3CCN[C@@H](CC#N)C3)nc(OC[C@@H]3CCCN3C)nc2c(=O)n1-c1cccc2ccccc12 [Compound 2, 2-((S)-4-(6-methyl-2-(((S)-1-methylpyrrolidin-2-yl)methoxy)-7-(naphthalen-1-yl)-8-oxo-7,8-dihydropyrimido[5,4-d]pyrimidin-4-yl)piperazin-2-yl)acetonitrile]	> 5	0.69	1.34	0.642	–	–	–	–
C=CC(=O)N1CCN(c2nc(OC[C@@H]3CCCN3C)nc3c(=O)n(-c4cccc5cccc(Cl)c45)c(C(F)(F)F)nc23)C[C@@H]1CC#N [Example 31, 2-((S)-1-acryloyl-4-(7-(8-chloronaphthalen-1-yl)-2-(((S)-1-methylpyrrolidin-2-yl)methoxy)-8-oxo-6-(trifluoromethyl)-7,8-dihydropyrimido[5,4-d]pyrimidin-4-yl)piperazin-2-yl)acetonitrile]	> 10	0.446	–	0.124	–	–	–	IC50 (KRAS G12C [3]): 0.116 µM

The next lines start with results.

IC50 (A549; Homo sapiens, 72 h) [µM]	IC50 (KRAS G12C [1]) [µM]	IC50 (NCI-H358; Homo sapiens, NCI-H358, 72 h) [µM]	IC50 (MIA PaCa-2; Homo sapiens, MIA PaCa-2, 72 h) [µM]	IC50 (NCI-H358) [µM]	IC50 (A549) [µM]	IC50 (MIA PaCa-2) [µM]	Structure (SMILES)	other results
–	–	–	–	0.206	> 10	0.916	C=CC(=O)N1C[C@H](C)N(c2nc(OC[C@@H]3CCCN3C)nc3c(=O)n(-c4cc(OC)cc5ccccc45)c(C(F)(F)F)nc23)[C@@H](C)C1 (single isomer, unassigned) [Example 35-b]	–
–	–	–	–	0.082	> 10	0.679	C=CC(=O)N1C[C@H](C)N(c2nc(OC[C@@H]3CCCN3C)nc3c(=O)n(-c4cccc5cccc(F)c45)c(C(F)(F)F)nc23)[C@@H](C)C1 (single isomer, unassigned) [Example 34-b]	–
> 10	–	–	–	1.18	–	2.65	C=CC(=O)N1C[C@H](C)N(c2nc(OC[C@@H]3CCCN3C)nc3c(=O)n(-c4cc(OC)cc5ccccc45)c(C(F)(F)F)nc23)[C@@H](C)C1 (single isomer, unassigned) [Example 35-a]	–
> 10	–	–	1.23	0.202	–	–	C=CC(=O)N1C[C@H](C)N(c2nc(OC[C@@H]3CCCN3C)nc3c(=O)n(-c4cccc5cccc(F)c45)c(C(F)(F)F)nc23)[C@@H](C)C1 (single isomer, unassigned) [Example 34-a]	–
